Results taken from PubChem BioAssay (NCI).
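Dose response: 5 concentrations. Exposure: 48 h. Format: 96-well plates. Endpoint: linear interpolation; highest concentration if not reached. GI50: concentration for 50% inhibition of growth. At the TGI there is no net growth.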

Columns and labels:
Assay in all cases: growth of human tumour cells (NCI), 48 h
[1] = system: 786-0 renal
[2] = system: A498 renal
[3] = system: A549 NSCLC
[4] = system: ACHN renal
[5] = system: BT-549 breast
[6] = system: COLO 205 colon
[7] = system: DU-145 prostate
[8] = system: EKVX NSCLC
[9] = system: HCC-2998 colon
[10] = system: HCT-116 colon
[11] = system: HCT-15 colon
[12] = system: HL-60(TB) leukemia
[13] = system: HOP-62 NSCLC
[14] = system: HOP-92 NSCLC
[15] = system: HT29 colon
[16] = system: IGROV1 ovarian
[17] = system: K-562 leukemia
[18] = system: KM12 colon
[19] = system: LOX IMVI melanoma
[20] = system: M14 melanoma
[21] = system: MALME-3M melanoma
[22] = system: MCF7 breast
[23] = system: MDA-MB-231 breast
[24] = system: MDA-MB-435
[25] = system: MOLT-4 leukemia
[26] = system: NCI-H226 lung
[27] = system: NCI-H460 lung
[28] = system: NCI-H522 lung
[29] = system: NCI/ADR-RES ovarian
[30] = system: OVCAR-3 ovarian
[31] = system: OVCAR-4 ovarian
[32] = system: OVCAR-5 ovarian
[33] = system: OVCAR-8 ovarian
[34] = system: PC-3 prostate
[35] = system: RPMI-8226 leukemia
[36] = system: RXF 393 renal
[37] = system: SF-268 CNS
[38] = system: SF-295 CNS
[39] = system: SF-539 CNS
[40] = system: SK-MEL-2 melanoma
[41] = system: SK-MEL-28 melanoma
[42] = system: SK-MEL-5 melanoma
[43] = system: SK-OV-3 ovarian
[44] = system: SN12C renal
[45] = system: SNB-19 CNS
[46] = system: SNB-75 CNS
[47] = system: SR leukemia
[48] = system: T-47D breast
[49] = system: TK-10 renal
[50] = system: U251 CNS
[51] = system: UACC-257 melanoma
[52] = system: UACC-62 melanoma
[53] = system: UO-31 renal

Structure (SMILES): COc1ccc2c(c1)Oc1nc(N)c(C#N)c(N)c1C2Sc1ccc(SC)cc1 (stereo unspecified)
- GI50 [1]: 1660 nM
- TGI [1]: 3060 nM
- GI50 [2]: 1770 nM
- TGI [2]: 3300 nM
- GI50 [3]: 2000 nM
- TGI [3]: 3910 nM
- GI50 [4]: 1740 nM
- TGI [4]: 3110 nM
- GI50 [5]: 1630 nM
- TGI [5]: 3000 nM
- GI50 [6]: 1850 nM
- TGI [6]: 3600 nM
- GI50 [7]: 1790 nM
- TGI [7]: 3190 nM
- GI50 [8]: 1660 nM
- TGI [8]: 3090 nM
- GI50 [9]: 1780 nM
- TGI [9]: 3360 nM
- GI50 [10]: 1760 nM
- TGI [10]: 3240 nM
- GI50 [11]: 1580 nM
- TGI [11]: 3330 nM
- GI50 [12]: 1990 nM
- TGI [12]: 5490 nM
- GI50 [13]: 1830 nM
- TGI [13]: 3490 nM
- GI50 [14]: 1940 nM
- TGI [14]: 3560 nM
- GI50 [15]: 2200 nM
- TGI [15]: 4360 nM
- GI50 [16]: 1730 nM
- TGI [16]: 3780 nM
- GI50 [17]: 2710 nM
- TGI [17]: 10300 nM
- GI50 [18]: 1780 nM
- TGI [18]: 3490 nM
- GI50 [19]: 1680 nM
- TGI [19]: 3210 nM
- GI50 [20]: 1760 nM
- TGI [20]: 3330 nM
- GI50 [21]: 1780 nM
- TGI [21]: 3350 nM
- GI50 [22]: 1830 nM
- TGI [22]: 4500 nM
- GI50 [23]: 1850 nM
- TGI [23]: 3380 nM
- GI50 [24]: 1740 nM
- TGI [24]: 3230 nM
- GI50 [25]: 2830 nM
- TGI [25]: 6870 nM
- GI50 [26]: 1920 nM
- TGI [26]: 3580 nM
- GI50 [27]: 2040 nM
- TGI [27]: 4050 nM
- GI50 [28]: 1650 nM
- TGI [28]: 3080 nM
- GI50 [29]: 2420 nM
- TGI [29]: 6050 nM
- GI50 [30]: 1750 nM
- TGI [30]: 3190 nM
- GI50 [31]: 1640 nM
- TGI [31]: 3070 nM
- GI50 [32]: 1800 nM
- TGI [32]: 3550 nM
- GI50 [33]: 1760 nM
- TGI [33]: 3190 nM
- GI50 [34]: 1770 nM
- TGI [34]: 3270 nM
- GI50 [35]: 2860 nM
- TGI [35]: 6430 nM
- GI50 [36]: 1720 nM
- TGI [36]: 3110 nM
- GI50 [37]: 1700 nM
- TGI [37]: 3290 nM
- GI50 [38]: 1810 nM
- TGI [38]: 3340 nM
- GI50 [39]: 1720 nM
- TGI [39]: 3110 nM
- GI50 [40]: 1700 nM
- TGI [40]: 3280 nM
- GI50 [41]: 1710 nM
- TGI [41]: 3150 nM
- GI50 [42]: 1790 nM
- TGI [42]: 3180 nM
- GI50 [43]: 1770 nM
- TGI [43]: 3160 nM
- GI50 [44]: 1640 nM
- TGI [44]: 3060 nM
- GI50 [45]: 1770 nM
- TGI [45]: 3180 nM
- GI50 [46]: 1460 nM
- TGI [46]: 2800 nM
- GI50 [47]: 2250 nM
- TGI [47]: 6660 nM
- GI50 [48]: 1940 nM
- TGI [48]: 4910 nM
- GI50 [49]: 1770 nM
- TGI [49]: 3170 nM
- GI50 [50]: 1730 nM
- TGI [50]: 3190 nM
- GI50 [51]: 1900 nM
- TGI [51]: 3380 nM
- GI50 [52]: 1810 nM
- TGI [52]: 3330 nM
- GI50 [53]: 1510 nM
- TGI [53]: 2840 nM
